In PubChem BioAssay AID270 (DTP/NCI, 2004):
Where “and” joins values, the source holds several entries; their conditions need not be identical. Equal values may be shown once. Inconclusive results are not listed.

System: BDF1 mice, s.c. Lewis lung carcinoma, T/C %
Assay: NCI In Vivo Anticancer Drug Screen. Data for tumor model Lewis Lung Carcinoma (subcutaneous) in B6D2F1 (BDF1) mice
Summary of the method: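 The value reflects a ratio in which the treated cohort's survival time or tumour size is compared against mice receiving only vehicle.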

[1] = endpoint: median survival time, dose: 100.0 mg/kg/injection, schedule: Q01DX009 (ip), vehicle: saline, higher = longer survival

CN(CCC(=O)c1ccccc1)CCC(=O)c1ccccc1
T/C (endpoint: mean tumor weight, dose: 55.0 mg/kg/injection, schedule: Q01DX011 (ip), vehicle: other, higher = larger tumour): 91 % of control
T/C (endpoint: mean tumor weight, dose: 83.0 mg/kg/injection, schedule: Q01DX011 (ip), vehicle: other, higher = larger tumour): 122 % of control

O
T/C (endpoint: median survival time, dose: 100.0 mg/kg/injection, schedule: Q02DX009 (ip), vehicle: saline, higher = longer survival): 91 % of control
T/C (endpoint: median survival time, dose: 200.0 mg/kg/injection, schedule: Q02DX009 (ip), vehicle: saline, higher = longer survival): 110 % of control
T/C (endpoint: median survival time, dose: 600.0 mg/kg/injection, schedule: Q02DX009 (ip), vehicle: saline, higher = longer survival): 94 % of control

CCOC(C)C(/C=N/NC(N)=S)=NNC(N)=S (stereo not drawn)
T/C (endpoint: mean tumor weight, dose: 30.0 mg/kg/injection, schedule: Q01DX011 (ip), vehicle: saline, higher = larger tumour): 77 % of control
T/C (endpoint: mean tumor weight, dose: 60.0 mg/kg/injection, schedule: Q01DX011 (ip), vehicle: saline, higher = larger tumour): 81 % of control
T/C (endpoint: mean tumor weight, dose: 120.0 mg/kg/injection, schedule: Q01DX011 (ip), vehicle: saline, higher = larger tumour): 66 % of control

CCCOP(=S)(N1CC1)N1CC1
T/C (endpoint: median survival time, dose: 18.75 mg/kg/injection, schedule: Q01DX009 (ip), vehicle: Klucel (hydroxypropylcellulose) (HPC), higher = longer survival): 112 % of control
T/C (endpoint: median survival time, dose: 37.5 mg/kg/injection, schedule: Q01DX009 (ip), vehicle: Klucel (hydroxypropylcellulose) (HPC), higher = longer survival): 95 % of control
T/C (endpoint: median survival time, dose: 75.0 mg/kg/injection, schedule: Q01DX009 (ip), vehicle: Klucel (hydroxypropylcellulose) (HPC), higher = longer survival): 94 % of control
T/C [1]: 116 % of control

O=c1[nH]cnc2n[nH]nc12
T/C (endpoint: mean tumor weight, dose: 49.0 mg/kg/injection, schedule: Q01DX011 (ip), vehicle: other, higher = larger tumour): 76 % of control
T/C (endpoint: mean tumor weight, dose: 98.0 mg/kg/injection, schedule: Q01DX011 (ip), vehicle: other, higher = larger tumour): 64 % of control
T/C (endpoint: mean tumor weight, dose: 147.0 mg/kg/injection, schedule: Q01DX011 (ip), vehicle: other, higher = larger tumour): 55 % of control
T/C (endpoint: mean tumor weight, dose: 220.0 mg/kg/injection, schedule: Q01DX011 (ip), vehicle: other, higher = larger tumour): 67 % of control

CC(C)c1ccc(O)c(=O)cc1
T/C (endpoint: mean tumor weight, dose: 37.5 mg/kg/injection, schedule: Q01DX011 (ip), vehicle: carboxymethylcellulose (CMC), higher = larger tumour): 52 % of control
T/C (endpoint: mean tumor weight, dose: 75.0 mg/kg/injection, schedule: Q01DX011 (ip), vehicle: carboxymethylcellulose (CMC), higher = larger tumour): 62 % of control

CN(C)CC(Cl)CCl (stereo not drawn)
T/C (endpoint: median survival time, dose: 50.0 mg/kg/injection, schedule: Q01DX009 (ip), vehicle: saline, higher = longer survival): 117 % of control
T/C [1]: 122 % of control
T/C (endpoint: median survival time, dose: 200.0 mg/kg/injection, schedule: Q01DX009 (ip), vehicle: saline, higher = longer survival): 105 % of control

O=C(Nc1ccc(C2=NCCN2)cc1)c1cc(Cl)cc(C(=O)Nc2ccc(C3=NCCN3)cc2)c1
T/C (endpoint: mean tumor weight, dose: 100.0 mg/kg/injection, schedule: Q01DX011 (ip), vehicle: saline, higher = larger tumour): 93 % of control
T/C (endpoint: mean tumor weight, dose: 200.0 mg/kg/injection, schedule: Q01DX011 (ip), vehicle: saline, higher = larger tumour): 66 % of control
T/C (endpoint: mean tumor weight, dose: 400.0 mg/kg/injection, schedule: Q01DX011 (ip), vehicle: saline, higher = larger tumour): 51 % of control
T/C (endpoint: mean tumor weight, dose: 800.0 mg/kg/injection, schedule: Q01DX011 (ip), vehicle: saline, higher = larger tumour): 21 % of control

C=C(C)C12OC3(c4ccccc4)OC1C1C4OC4(CO)C(O)C4(O)C(=O)C(C)=CC4C1(O3)C(C)C2OC(=O)c1ccccc1 (stereo not drawn)
T/C (endpoint: median survival time, dose: 0.1 mg/kg/injection, schedule: Q01DX009 (ip), vehicle: saline, higher = longer survival): 100 % of control
T/C (endpoint: median survival time, dose: 0.2 mg/kg/injection, schedule: Q01DX009 (ip), vehicle: saline, higher = longer survival): 100 % of control
T/C (endpoint: median survival time, dose: 0.4 mg/kg/injection, schedule: Q01DX009 (ip), vehicle: saline, higher = longer survival): 100 % of control
T/C (endpoint: median survival time, dose: 0.8 mg/kg/injection, schedule: Q01DX009 (ip), vehicle: saline, higher = longer survival): 94 % of control

CCOP(=O)(CC(=O)NC(CC(=O)OC)C(=O)OC)OCC (stereo not drawn)
T/C (endpoint: median survival time, dose: 50.0 mg/kg/injection, schedule: Q01DX004 (ip), vehicle: saline, higher = longer survival): 110 % of control
T/C (endpoint: median survival time, dose: 100.0 mg/kg/injection, schedule: Q01DX004 (ip), vehicle: saline, higher = longer survival): 120 % of control
T/C (endpoint: median survival time, dose: 200.0 mg/kg/injection, schedule: Q01DX004 (ip), vehicle: saline, higher = longer survival): 116 % of control
T/C (endpoint: median survival time, dose: 800.0 mg/kg/injection, schedule: Q01DX004 (ip), vehicle: saline, higher = longer survival): 124 % of control
T/C (endpoint: median survival time, dose: 1600.0 mg/kg/injection, schedule: Q01DX004 (ip), vehicle: saline, higher = longer survival): 124 % of control

COC(C(=O)C(O)C(C)O)C1Cc2cc3cc(OC4CC(OC5CC(O)C(O)C(C)O5)C(O)C(C)O4)c(C)c(O)c3c(O)c2C(=O)C1OC1CC(OC2CC(O)C(OC3CC(C)(O)C(O)C(C)O3)C(C)O2)C(O)C(C)O1 (stereo not drawn)
T/C (endpoint: median survival time, dose: 0.06 mg/kg/injection, schedule: Q01DX009 (ip), vehicle: saline, higher = longer survival): 93 % of control
T/C (endpoint: median survival time, dose: 0.13 mg/kg/injection, schedule: Q01DX009 (ip), vehicle: saline, higher = longer survival): 93 % of control and 123 % of control
T/C (endpoint: median survival time, dose: 0.25 mg/kg/injection, schedule: Q01DX009 (ip), vehicle: saline, higher = longer survival): 96 % of control
T/C (endpoint: median survival time, dose: 0.5 mg/kg/injection, schedule: Q01DX009 (ip), vehicle: saline, higher = longer survival): 94 % of control
